# Measured values from patent US20250312258A1, “2,3-PYRROLIDINEDIONE CONJUGATES AND METHODS OF USING THEREOF” (North Carolina State University, priority 2022, published 2025).
# Where two headings read alike, the source gives them in different places.
# What was measured:
# [1] = test system: VRSA; experiment: MIC against VRSA strain panel (VRS/NRS strains); format: cell-based; settings: Staphylococcus aureus, VRSA, the 5th table
# [2] = test system: S. pneumoniae; experiment: MIC against S. pneumoniae strain panel; format: cell-based; settings: Streptococcus pneumoniae
# [3] = test system: MRSA 33591; experiment: Broth microdilution MIC, MRSA 33591; format: cell-based; settings: Staphylococcus aureus, read-out: MIC (MRSA 33591)
# [4] = test system: S. aureus 29213; experiment: Broth microdilution MIC, S. aureus 29213; format: cell-based, Staphylococcus aureus
# [5] = test system: S. aureus 25923; experiment: Broth microdilution MIC, S. aureus 25923; format: cell-based, Staphylococcus aureus; settings: Staphylococcus aureus, 25923, read-out: MIC (S. aureus 25923)
# [6] = test system: ATCC 29212 E. faecalis; experiment: MIC against ATCC 29212 E. faecalis; format: cell-based
# [7] = test system: VRSA; experiment: MIC against VRSA (Table 2); format: cell-based; settings: Staphylococcus aureus, read-out: MIC (VRSA)
# [8] = test system: E. coli; experiment: MIC against E. coli strains; format: cell-based
# [9] = test system: Group A Strep; experiment: MIC against Group A Strep strain panel; format: cell-based
# [10] = test system: MRSA; experiment: MIC against MRSA strain panel; format: cell-based; settings: Staphylococcus aureus, the 4th table
compound,measurement,setting,value
"CN[C@H](CC(C)C)C(=O)N[C@H]1C(=O)N[C@@H](CC(N)=O)C(=O)N[C@H]2C(=O)N[C@H]3C(=O)N[C@H](C(=O)N[C@H](C(=O)O)c4cc(O)cc(O)c4-c4cc3ccc4O)[C@H](O)c3ccc(c(Cl)c3)Oc3cc2cc(c3O[C@@H]2O[C@H](CO)[C@@H](O)[C@H](O)[C@H]2O[C@H]2C[C@](C)(N)[C@H](O)[C@H](C)O2)Oc2ccc(cc2Cl)[C@H]1O [Vancomycin, vancomycin, reference compound]",MIC,[1]; VRS-6 VRSA,> 64 µg/mL
same,MIC,[1]; VRS-7 VRSA,> 64 µg/mL
same,MIC,[1]; VRS-8 VRSA,> 64 µg/mL
same,MIC,[1]; VRS-9 VRSA,> 64 µg/mL
same,MIC,[1]; VRS-10 VRSA,> 64 µg/mL
same,MIC,[1]; VRS-11a VRSA,> 64 µg/mL
same,MIC,[1]; VRS-11b VRSA,> 64 µg/mL
same,MIC,"[2]; ATCC49619, ATCC 49619 S. pneumoniae, CA-MHB w/5% LHB, the 4th table",0.25 µg/mL
same,MIC,"[2]; ATCC49619, ATCC 49619 S. pneumoniae, the 7th table",≤ 0.125 µg/mL
same,MIC,"[2]; CO314937 S. pneumoniae, CA-MHB w/5% LHB, the 4th table",0.25 µg/mL
same,MIC,"[2]; CT3-5008 S. pneumoniae, the 7th table",0.25 µg/mL
same,MIC,"[2]; CT3-5803 S. pneumoniae, the 7th table",0.25 µg/mL
same,MIC,"[2]; CT3-8501 S. pneumoniae, the 7th table",0.25 µg/mL
same,MIC,"[2]; CT4-3048 S. pneumoniae, the 7th table",0.5 µg/mL
same,MIC,"[2]; CT4-9046 S. pneumoniae, the 7th table",0.25 µg/mL
same,MIC,"[2]; CT4-9693 S. pneumoniae, the 7th table",0.25 µg/mL
same,MIC,"[2]; CT5-6541 S. pneumoniae, the 7th table",0.25 µg/mL
same,MIC,"[2]; CT5-8032 S. pneumoniae, the 7th table",0.5 µg/mL
same,MIC,"[2]; CT5-9124 S. pneumoniae, the 7th table",0.25 µg/mL
same,MIC,"[2]; CT6-0670 S. pneumoniae, the 7th table",0.5 µg/mL
same,MIC,"[2]; CT6-7691 S. pneumoniae, the 7th table",0.25 µg/mL
same,MIC,"[2]; CT0200-2241 S. pneumoniae, the 7th table",0.25 µg/mL
same,MIC,"[2]; CT0200-2730 S. pneumoniae, the 7th table",0.25 µg/mL
same,MIC,"[2]; MD77773 S. pneumoniae, CA-MHB w/5% LHB, the 4th table",0.5 µg/mL
same,MIC,[3],2 µg/mL
same,MIC,"[4]; Staphylococcus aureus, 29213, read-out: MIC (S. aureus 29213)",1 µg/mL
same,MIC,"[4]; Staphylococcus aureus, ATCC 29213 / MRSA",0.5 µg/mL
same,MIC,[5],2 µg/mL
same,MIC,"[6]; ATCC 29212 E. faecalis, the 6th table",2 µg/mL
same,MIC,"[6]; Enterococcus faecalis, ATCC29212",2 µg/mL
same,MIC,[7],64 µg/mL
same,MIC,"[8]; AR-137 E. coli, the 4th table",>64 µg/mL
same,MIC,[8]; Escherichia coli,> 64 µg/mL
same,MIC,"[8]; Escherichia coli, ATCC25922",> 64 µg/mL
same,MIC,[9],0.25 µg/mL
same,MIC,"[9]; 2007-11 Group A Strep, the 8th table",0.25 µg/mL
same,MIC,"[9]; 2007-28 Group A Strep, the 8th table",0.25 µg/mL
same,MIC,"[9]; 2007-49 Group A Strep, the 8th table",0.25 µg/mL
same,MIC,"[9]; 2007-73 Group A Strep, the 8th table",0.25 µg/mL
same,MIC,"[9]; 2007-107 Group A Strep, the 8th table",0.25 µg/mL
same,MIC,"[9]; 2007-1101 Group A Strep, the 8th table",0.25 µg/mL
same,MIC,"[9]; 2008-06 Group A Strep, the 8th table",0.25 µg/mL
same,MIC,"[9]; 2008-45 Group A Strep, the 8th table",0.25 µg/mL
same,MIC,"[9]; 2008-818 Group A Strep, CA-MHB w/5% LHB, the 4th table",0.25 µg/mL
same,MIC,"[9]; 2008-1565 Group A Strep, the 8th table",0.25 µg/mL
same,MIC,"[9]; 2008-1692 Group A Strep, the 8th table",0.25 µg/mL
same,MIC,"[9]; 2009-8 Group A Strep, the 8th table",0.25 µg/mL
same,MIC,"[9]; 2009-37 Group A Strep, CA-MHB w/5% LHB, the 4th table",0.25 µg/mL
same,MIC,"[9]; 2009-106 Group A Strep, the 8th table",0.25 µg/mL
same,MIC,"[9]; 2009-109 Group A Strep, the 8th table",0.25 µg/mL
same,MIC,"[9]; 2009-114 Group A Strep, the 8th table",0.25 µg/mL
same,MIC,"[9]; 2009-136 Group A Strep, the 8th table",0.25 µg/mL
same,MIC,[10]; 6215 MRSA,1 µg/mL
same,MIC,[10]; 6217 MRSA,1 µg/mL
same,MIC,[10]; 6218 MRSA,1 µg/mL
same,MIC,[10]; 6220 MRSA,0.5 µg/mL
same,MIC,[10]; 6231 MRSA,0.5 µg/mL
same,MIC,[10]; AR-978 MRSA,1 µg/mL
same,MIC,[10]; AR-979 MRSA,1 µg/mL
same,MIC,[10]; AR-993 MRSA,1 µg/mL
same,MIC,[10]; AR-997 MRSA,1 µg/mL
